Columns and labels:
[1] = tested on: quinone reductase (QR) in Hepa 1c1c7 murine hepatoma cells; experiment: Induction of QR (inducer potency, CD value) in Hepa 1c1c7 murine hepatoma cells; assay type: cell-based
Experimental: Assay of Inducer Potency. Inducer activity was measured in Hepa 1c1c7 murine hepatoma cells grown in 96-well microtiter plates (Prochaska and Santamaria, Anal. Biochem. 169:328-336 (1988); Prochaska et al., Proc. Natl. Acad. Sciences USA 89:2394-2398 (1992)). QR activity (based on the formation of the blue-brown reduced tetrazolium dye) was measured with an optical microtiter plate scanner in cell lysates prepared in one plate, and the cell density was determined in the second plate by staining with crystal violet. Quantitative information on specific activity of QR, the inducer potency, and the cytotoxicity of the extract or compound tested is obtained by computer analysis of the absorbances. One unit of inducer activity is defined as the amount that when added to a single microtiter well doubled the QR specific activity. The CD value is the concentration of a compound required to double the quinone reductase specific activity in Hepa 1c1c7 murine hepatoma cells.
Each of the analogs of sulforaphane was tested for the ability to induce QR in murine hepatoma cells by the assay described in Example 1.
Analogs were synthesized and tested in the hepatoma cell assay described in Example 1.

QR (quinone reductase) = experiment: Induction of QR in mouse tissues after gavage; assay type: in vivo, mouse (female CD-1)
Experimental: (§1) The compounds were administered to 6week-old female CD1 mice (4 or 5 mice
(§2) per group) by gavage in indicated single daily doses in 0.1 ml of Emulpho
(§3) EL 620P (GAF. Linden, NJ) for 5 days. Cytosols were prepared from the
(§4) tissues 24 hr after the last treatment and assayed for enzyme activities
(§5) (glutathione Stransferase was measured with 1chloro-2,4-dinitrobenzene).
(§6) The specific activities (nmol · min^-1 · mg^-1
(§7) ± SEM) of organs of vehicletreated #control mice were as follows.
(§8) 54 ± 5.8: GST. 439 ± 34. Data are presented as mean ± SEM.

female CD-1 mice = experiment: Toxicity in mice dosed by gavage; assay type: in vivo, mouse (female CD-1); conditions: compared with sulforaphane and erucin
From the text: The sulfone (erysolin) was more toxic, but even 5-μmol daily doses for 5 days elevated the specific activities of these enzymes in some tissues examined. We therefore conclude that sulforaphane and its analogues not only induce QR in Hepa 1c1c7 murine hepatoma cells but also induce both QR and glutathione transferase activities in a number of murine organs.

[2] = tested on: glutathione S-transferase (GST); experiment: Induction of glutathione S-transferase (GST) in mouse tissues after gavage; assay type: in vivo, mouse (female CD-1)
Experimental: as §1, §2, §3, §4, §5, §6, §7, §8

[3] = 5 μmol per mouse per day, gavage, 5 days, forestomach
[4] = 5 μmol per mouse per day, gavage, 5 days, glandular stomach
[5] = 5 μmol per mouse per day, gavage, 5 days, liver
[6] = 5 μmol per mouse per day, gavage, 5 days, lung
[7] = 5 μmol per mouse per day, gavage, 5 days, proximal small intestine
[8] = 5-μmol daily doses for 5 days, some tissues

Compound: CS(=O)(=O)CCCCN=C=S [Erysolin]
- EC (2-fold QR specific activity) ([1]; Mus musculus, Hepa-1c1c7, read-out: CD value, Table 1, QR induction, Hepa 1c1c7 cells): 0.82 µM
- relative potency as inducers of QR ([1]; comparison in words, Table 1): equipotent
- activity as inducers compared with sulforaphane and sulforaphene ([1]; in cell culture): less active
- Ratio of specific activities (treated/control), QR, Forestomach (QR (quinone reductase); [3]): 1.05 ± 0.21
- Ratio of specific activities (treated/control), QR, Glandular stomach (QR (quinone reductase); [4]): 1.57 ± 0.08
- Ratio of specific activities (treated/control), QR, Liver (QR (quinone reductase); [5]): 1.62 ± 0.09
- Ratio of specific activities (treated/control), QR, Lung (QR (quinone reductase); [6]): 1.00 ± 0.11
- Ratio of specific activities (treated/control), QR, Proximal small intestine (QR (quinone reductase); [7]): 1.22 ± 0.20
- elevation of QR specific activity (QR (quinone reductase); [8]): elevated
- toxicity in mice (female CD-1 mice): more toxic
- Ratio of specific activities (treated/control), GST, Forestomach [2, 3]: 1.45 ± 0.15
- Ratio of specific activities (treated/control), GST, Glandular stomach [2, 4]: 1.94
- Ratio of specific activities (treated/control), GST, Liver [2, 5]: 1.08 ± 0.11
- Ratio of specific activities (treated/control), GST, Lung [2, 6]: 1.09
- Ratio of specific activities (treated/control), GST, Proximal small intestine [2, 7]: 0.87
- elevation of glutathione transferase specific activity [2, 8]: elevated

Reference: patent USRE36784E, “Chemoprotective isothiocyanates” (The Johns Hopkins University, priority 1997, dated 2000)
